B1: IL-1a: cytokine IL-1α obtained from Hoffman LaRoche (protein, UniProt P01583 113-271, looked up)
Interleukin-1 alpha: SAPFSFLSNVKYNFMRIIKYEFILNDALNQSIIRANDQYLTAAALHNLDEAVKFDMGAYKSSKDDAKITVILRISKTQLYVTAQDEDQPVLLKEMPEIPKTITGSETNLLFFWETHGTKNYFTSVAHPNLFIATKQDYWVCLAGGPPSITDFQILENQA

Legend:
[1] = tested on: MCF12A; experiment: Clonogenic assay, nontransformed mammary epithelial cells; assay type: cell-based; settings: 1 mM antagonist, 2 weeks; for # of colonies/10^3 cells (±SD): methyl cellulose matrix
Protocol: (§1) Clonogenic assays studied the proliferation of breast cancer cell lines. Duplicate cultures were performed with 10^3 cells/ml in 1.2% methylcellulose matrix that contained various concentrations (between about 100 to 0.001 mM) of NK-1, NK-2 or (NK-1+NK-2) antagonists. Baseline cultures contained media alone. For each cell line, the assay contained the appropriate culture media. Cultures were incubated for 2 wk at 37° C. This was followed by enumeration of colonies that contained more than 10 cells. In a highly preferred embodiment, the concentration of antagonist is 1 nM.
(§2) Increased expression of PPT-I and NK-1 in breast cancer cells (Tables 1 and 2) led to the next set of experiments. A functional role for these genes in breast cancer is established by determining whether PPT-I peptides, endogenously produced by breast cancer cells, can induce their proliferation through autocrine and/or paracrine mechanisms. This question was addressed in six different experiments using clonogenic assay. […] NK-1 or NK-2 antagonists blunted breast cancer cell proliferation by approximately […] when compared to cultures with media alone (Table 4). […] There was no significant difference (p>0.5) in cell proliferation when normal mammary epithelial cells (MCF12A and H5578Bst) were cultured with the antagonists. […] Reduced colony formation was not due to necrosis since >99% of the cells were trypan blue negative in suspension cultures, performed for two weeks with antagonists.

[2] = tested on: Hs578Bst; experiment: as above; assay type: cell-based; settings: 1 mM antagonist, 2 weeks; for # of colonies/10^3 cells (±SD): methyl cellulose matrix
Protocol: as §1, §2

[3] = tested on: ZR7530; experiment: Clonogenic assay, proliferation of breast cancer cell line; assay type: cell-based; settings: 1 mM antagonist, 2 weeks; for # of colonies/10^3 cells (±SD): methyl cellulose matrix
Protocol: as §1, §2

[4] = tested on: BT474; experiment: as above; assay type: cell-based; settings: 1 mM antagonist, 2 weeks; for # of colonies/10^3 cells (±SD): methyl cellulose matrix
Protocol: as §1, §2

[5] = tested on: MDAMB-330; experiment: as above; assay type: cell-based; settings: 1 mM antagonist, 2 weeks; for # of colonies/10^3 cells (±SD): methyl cellulose matrix
Protocol: as §1, §2

[6] = tested on: Du4475; experiment: as above; assay type: cell-based; settings: 1 mM antagonist, 2 weeks; for # of colonies/10^3 cells (±SD): methyl cellulose matrix
Protocol: as §1, §2

[7] = tested on: T47D; experiment: as above; assay type: cell-based; settings: 1 mM antagonist, 2 weeks; for # of colonies/10^3 cells (±SD): methyl cellulose matrix
Protocol: as §1, §2

[8] = tested on: PPT-I promoter (Upstream/N0); experiment: Luciferase reporter gene assay, pGL3-Upstream/N0 in transfected bone marrow stroma; assay type: cell-based, human
Protocol: (§3) Transfected bone marrow stroma was stimulated with optimal concentrations of IL-1α (2.5 ng/ml), SCF (8 ng/ml) or 1 nM substance P, SP (Sigma, St Louis, Mo.) and/or 10 nM NK-1-specific antagonist (CP-99,994) in α-MEM with 2% FCS. In other embodiments, bone marrow stroma was stimulated with 5 μg/ml forskolin, FK (Sigma) for 2 and 5 h. SCF was purchased from R&D Systems (Minneapolis, Minn.) and IL-1α was obtained from Hoffman LaRoche, Nutley, N.J. Pfizer, Inc. (Groton, Conn.) provided CP-99,994. Substance P and CP-99,994 were dissolved and stored as described in Ramewshwar et al (1996), supra. Optimal parameters were determined with dose-response and time-course studies.
pGL3-basic with inserts of different fragments from PPT-I-p1.2 was co-transfected with pβ-gal-Control (0.5 μg each) in 80% confluent bone marrow stroma using SuperFect (Qiagen, Valencia, Calif.). After 48 h cells were scraped in 30 μl 250 mM Tris (pH 8.0) and then lysed by freezing and thawing in a dry ice/ethanol bath. Cell-free lysates (24 μl) were obtained by centrifugation at 15,000 g for 5 min at 4° C. and then diluted with 5× cell culture lysis buffer (Promega). Luciferase and β-gal activities were quantitated with 10 μl of lysates using Luciferase assay system (Promega) and Luminescent β-galactosidase detection kit II (Clontech) respectively. In the experimental model, the ratios of Luciferase/β-gal in cells transfected with vector alone ranged from 0.18 to 0.19 and was normalized to 1. Because cytokines induce the promoter upstream of β-gal, in cytokine-stimulated cells, luciferase activity was presented/mg of total protein the levels normalized with stroma transfected with vector alone. Total protein was determined using standard techniquees well known in the art.
Mutations were performed with a mutagenesis kit (Stratagene, La Jolla, Calif.). The desired mutant sequences (Table 1) were synthesized within 40 nt in the forward and reverse directions and then used in PCR with pGL3 containing wild type Upstream/N0. After PCR amplification, mutation was verified by identification of Apa L1 within CRE-like mutant and the loss of Xho 1 in CRE mutant.

[9] = tested on: β-PPT-I mRNA; experiment: Quantitative RT-PCR in stimulated bone marrow stroma; assay type: cell-based, human; settings: for β-PPT-I (molecules/μg total RNA): 8 ng/ml SCF and/or 10 nM CP-99,994
Protocol: (§4) In a second embodiment of the present invention, bone marrow stroma was stimulated in serum-free α-MEM supplemented with Insulin-transferrin-selenium-A (Life Technologies). Quantitative RT-PCR with total RNA, extracted from bone marrow stroma and construction of standard DNA was performed as described in Singh, D., supra. The end sequences of the standard DNA contained gene-specific sequences that are complementary for the reaction primers. The primers in the standard DNA flank neutral DNA. Total RNA (2 μg) was reverse transcribed and 200 ng cDNA used in PCR with specific oligonucleotide primers for PPT-I, NK-1 or NK-2. Standard DNA, log10 fold dilutions, ranged between 10^−2 to 10^−6 attomole/L. Each unknown sample was assayed with a particular concentration of standard DNA in the same reaction tube. PCR products (10 μl) were separated by electrophoresis on 1.5% agarose containing ethidium bromide and the densities of the DNA bands quantitated with a Fluorimager (Molecular Dynamics, Sunnyvale, Calif.) and then analyzed with ImageQuant software. A standard curve was established for each unknown sample: band densities of unknown/standard DNA vs. Log10 standard DNA concentration was used to determine the concentration of RNA molecules in the unknown samples. The concentration of the unknown sample was selected at the concentration in which the ratio of the unknown and standard were equivalent.
as §3
Confluent bone marrow stroma was stimulated with 25 ng/ml rhIL-1α or 10 ng/ml SCF for 24 h. Poly A RNA was isolated from total RNA by selection (2×) on oligo-dT cellulose (Life Technologies). The cellulose column was washed once with 10 mM Tris, pH 7.0; 0.5 M NaCl; […] and once with 10 mM Tris, pH 7.0; 0.2 M NaCl; […]. Poly A RNA was eluted with 10 mM Tris (pH 7.0) and […]. RNA was precipitated by standard techniques and then resuspended in DEPC-treated water. The purity was verified by the absence of rRNA.

[10] = tested on: NK-2 mRNA; experiment: as above; assay type: cell-based, human; settings: BM stroma; 8 ng/ml SCF or 2.5 ng/ml IL-1a; 16 h; serum-free α-MEM
Protocol: as §4, §3

[11] = tested on: NK-1 mRNA; experiment: as above; assay type: cell-based, human; settings: BM stroma; 8 ng/ml SCF or 2.5 ng/ml IL-1a; 16 h; serum-free α-MEM
Protocol: as §4, §3

Row | Molecule | percentage of cells cultured in media alone [1] | # of colonies/10^3 cells (±SD) [1] | # of colonies/10^3 cells (±SD) [2] | percentage of cells cultured in media alone [3] | # of colonies/10^3 cells (±SD) [3] | percentage of cells cultured in media alone [4] | # of colonies/10^3 cells (±SD) [4] | percentage of cells cultured in media alone [5] | # of colonies/10^3 cells (±SD) [5] | percentage of cells cultured in media alone [6] | # of colonies/10^3 cells (±SD) [6] | percentage of cells cultured in media alone [7] | # of colonies/10^3 cells (±SD) [7] | β-PPT-I (molecules/μg total RNA) ([9]; BM stroma, 1 nM SP, 16 h) | further results
1 | COc1ccccc1CN[C@H]1C2CCN(CC2)[C@H]1C(c1ccccc1)c1ccccc1 [CP96,345] | (94%) | 198 ± 18 colonies/10^3 cells | 201 ± 12 colonies/10^3 cells | 41% | 68 ± 8 colonies/10^3 cells | 39% | 70 ± 5 colonies/10^3 cells | 38% | 65 ± 5 colonies/10^3 cells | 39% | 63 ± 6 colonies/10^3 cells | 40% | 60 ± 4 colonies/10^3 cells |  | 
2 | COc1ccccc1CN[C@H]1CCCN[C@H]1c1ccccc1 [CP-99,994] |  |  |  |  |  |  |  |  |  |  |  |  |  | <1 molecules/μg total RNA | luciferase activity in SCF-stimulated cells in the presence of the antagonist ([8]; 10 nM CP-99,994, SCF-stimulated transfected stroma): significantly reduced; luciferase activity, antagonist alone compared to transfectants with vector alone ([8]; antagonist alone): did not affect; reduction of SP-induced β-PPT-I ([9]; 10 nM CP-99,994, 1 nM SP): 7 fold; effect on induction of endogenous PPT-I by SCF ([9]; BM stroma, SCF + CP-99,994): bluned
3 | CC(=O)NC1(c2ccccc2)CCN(CC[C@H](CN(C)C(=O)c2ccccc2)c2ccc(Cl)c(Cl)c2)CC1 [SR48968] | 95% | 200 ± 9 colonies/10^3 cells | 210 ± 11 colonies/10^3 cells | 36% | 60 ± 10 colonies/10^3 cells | 36% | 65 ± 8 colonies/10^3 cells | 38% | 64 ± 4 colonies/10^3 cells | 38% | 60 ± 5 colonies/10^3 cells | 43% | 65 ± 7 colonies/10^3 cells |  | percentage of cells cultured in media alone [2]: 105%
4 | substance P (RPKPQQFFGLM) [SP, major PPT-I peptide, preferred ligand for NK-1 (Sigma)] |  |  |  |  |  |  |  |  |  |  |  |  |  | 284 ± 12 molecules/μg total RNA | 
5 | B1 |  |  |  |  |  |  |  |  |  |  |  |  |  |  | NK-2 mRNA [10]: 968 ± 26 Molecules/μg total RNA; NK-1 mRNA [11]: 8106 ± 91 Molecules/μg total RNA; increase in luciferase activities compared to unstimulated cells ([8]; pGL3-Upstream/N0 wild type, optimal SCF or IL-1a, 10 h): 3 fold; induction of luciferase in cells transfected with the double mutants ([8]; pGL3-Upstream/N0 with mutant CRE and CRE-like): no significant induction; β-PPT-I mRNA ([9]; BM stroma, 8 ng/ml SCF or 2.5 ng/ml IL-1a, 16 h, serum-free α-MEM): 4849 ± 121 Molecules/μg total RNA; molecules of β-PPT-I/μg poly A ([9]; poly A RNA from stroma stimulated with 25 ng/ml rhIL-1α or 10 ng/ml SCF for 24 h, n=6): 250,100±980 molecules of β-PPT-I/μg poly A
